# Assay results from US12202843B2, “Muscarinic receptor agonists” (Nxera Pharma UK Limited, priority 2014, dated 2025).
# Tests used:
# [1] = biological target: T1, human muscarinic M4 receptor (Homo sapiens, UniProt P08173); assay: Alphascreen Surefire phospho-ERK1/2 functional assay, M4; assay type: cell-based; conditions: for % Emax cf. ACh, M4: CHO cells stably expressing human M4, relative to ACh; for EC50: CHO cells stably expressing human M4, read-out: pEC50 M4 (converted); for Emax: CHO, read-out: % Emax cf. ACh, M4, CHO cells stably expressing human M4, relative to ACh
# T1 construct: expressed in transfected cells
# T1 sequence (P08173 1-479): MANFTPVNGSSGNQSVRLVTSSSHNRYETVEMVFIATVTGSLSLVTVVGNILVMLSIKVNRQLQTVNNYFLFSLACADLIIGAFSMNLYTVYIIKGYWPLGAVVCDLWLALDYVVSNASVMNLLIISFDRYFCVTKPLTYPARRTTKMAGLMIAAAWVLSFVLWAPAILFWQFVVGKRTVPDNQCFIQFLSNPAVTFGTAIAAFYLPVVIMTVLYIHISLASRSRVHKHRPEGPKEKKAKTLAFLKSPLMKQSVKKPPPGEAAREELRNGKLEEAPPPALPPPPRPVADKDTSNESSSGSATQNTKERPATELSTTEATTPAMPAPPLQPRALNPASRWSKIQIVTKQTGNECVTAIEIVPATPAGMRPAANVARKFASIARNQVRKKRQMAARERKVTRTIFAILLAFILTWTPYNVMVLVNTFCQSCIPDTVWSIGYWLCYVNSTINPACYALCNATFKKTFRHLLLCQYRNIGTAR
# [2] = system: scopolamine-induced amnesia; assay: Passive avoidance, scopolamine-induced amnesia; assay type: in vivo; conditions: 90 minutes prior to training
# Description: Studies were carried out as described previously by Foley et al., (2004) Neuropsychopharmacology. In the passive avoidance task scopolamine administration (1 mg/kg, i.p.) at 6 hours following training rendered animals amnesic of the paradigm. A dose range of 3, 10, and 30 mg/kg (po) free base, administered 90 minutes prior to the training period via oral gavage, was examined.
# [3] = biological target: T2, human muscarinic M3 receptor (Homo sapiens, UniProt P20309); assay: Alphascreen Surefire phospho-ERK1/2 functional assay, M3; assay type: cell-based; conditions: for EC50: CHO cells stably expressing human M3, read-out: pEC50 M3 (converted); for Emax: CHO, read-out: % Emax cf. ACh, M3, CHO cells stably expressing human M3, relative to ACh
# T2 construct: expressed in transfected cells
# [4] = biological target: T3, human muscarinic M2 receptor (Homo sapiens, UniProt P08172); assay: Alphascreen Surefire phospho-ERK1/2 functional assay, M2; assay type: cell-based; conditions: for EC50: CHO cells stably expressing human M2, read-out: pEC50 M2 (converted); for Emax: CHO, read-out: % Emax cf. ACh, M2, CHO cells stably expressing human M2, relative to ACh
# T3 sequence (P08172 1-466): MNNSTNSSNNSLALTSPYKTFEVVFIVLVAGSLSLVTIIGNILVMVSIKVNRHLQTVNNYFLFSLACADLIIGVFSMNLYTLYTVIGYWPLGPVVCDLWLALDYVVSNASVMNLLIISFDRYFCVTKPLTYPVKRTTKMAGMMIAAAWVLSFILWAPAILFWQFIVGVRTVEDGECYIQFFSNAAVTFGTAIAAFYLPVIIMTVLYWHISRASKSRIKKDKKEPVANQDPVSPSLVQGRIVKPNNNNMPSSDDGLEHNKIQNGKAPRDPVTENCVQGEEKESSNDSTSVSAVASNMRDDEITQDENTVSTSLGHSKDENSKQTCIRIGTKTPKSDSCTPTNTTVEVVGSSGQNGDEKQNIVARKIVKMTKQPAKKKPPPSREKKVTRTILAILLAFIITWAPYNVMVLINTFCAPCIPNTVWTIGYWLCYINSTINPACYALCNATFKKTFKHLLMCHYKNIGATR
# [5] = biological target: T4, human muscarinic M1 receptor (Homo sapiens, UniProt P11229); assay: Alphascreen Surefire phospho-ERK1/2 functional assay, M1; assay type: cell-based; conditions: for EC50: CHO cells stably expressing human M1, read-out: pEC50 M1 (converted); for % Emax cf. ACh, M1: CHO cells stably expressing human M1, relative to ACh; for Emax: CHO, read-out: % Emax cf. ACh, M1, CHO cells stably expressing human M1, relative to ACh
# T4 sequence (P11229 1-460): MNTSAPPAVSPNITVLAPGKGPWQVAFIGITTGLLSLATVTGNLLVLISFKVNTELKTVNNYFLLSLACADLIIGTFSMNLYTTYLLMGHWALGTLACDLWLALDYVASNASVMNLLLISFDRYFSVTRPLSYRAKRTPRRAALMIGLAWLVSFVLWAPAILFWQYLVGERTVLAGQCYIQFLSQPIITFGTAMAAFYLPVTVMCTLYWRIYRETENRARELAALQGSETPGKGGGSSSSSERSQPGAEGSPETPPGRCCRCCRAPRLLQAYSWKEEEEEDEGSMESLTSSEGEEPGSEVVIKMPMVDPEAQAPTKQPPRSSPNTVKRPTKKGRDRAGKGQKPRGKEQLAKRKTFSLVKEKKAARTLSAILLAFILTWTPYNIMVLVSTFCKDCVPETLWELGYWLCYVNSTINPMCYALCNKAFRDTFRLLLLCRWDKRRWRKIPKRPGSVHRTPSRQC
# T2 sequence (P20309 whole entry): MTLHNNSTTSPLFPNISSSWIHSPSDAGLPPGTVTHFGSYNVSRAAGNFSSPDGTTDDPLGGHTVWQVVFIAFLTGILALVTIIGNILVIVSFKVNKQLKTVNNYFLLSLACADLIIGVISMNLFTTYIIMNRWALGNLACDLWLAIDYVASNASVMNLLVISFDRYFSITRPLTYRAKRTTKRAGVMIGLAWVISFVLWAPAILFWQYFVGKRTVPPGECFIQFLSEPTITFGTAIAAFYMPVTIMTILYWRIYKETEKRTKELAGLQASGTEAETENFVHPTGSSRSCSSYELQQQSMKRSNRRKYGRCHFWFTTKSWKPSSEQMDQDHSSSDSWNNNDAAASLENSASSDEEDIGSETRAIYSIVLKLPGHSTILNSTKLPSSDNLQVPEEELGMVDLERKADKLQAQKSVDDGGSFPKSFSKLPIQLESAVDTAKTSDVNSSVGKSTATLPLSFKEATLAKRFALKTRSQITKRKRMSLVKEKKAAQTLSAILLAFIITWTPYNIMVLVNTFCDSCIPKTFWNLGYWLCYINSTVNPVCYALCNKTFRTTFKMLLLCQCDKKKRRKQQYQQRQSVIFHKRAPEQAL
structure (smiles),measurement,setting,value
"CCOC(=O)N1C2CCC1CC(N1CCC3(CC1)CNC(=O)C3)C2 (single isomer, unassigned) [Example 2-2 Isomer 1, ethyl 3-(3-oxo-2,8-diazaspiro[4.5]dec-8-yl)-8-azabicyclo[3.2.1]octane-8-carboxylate]","% Emax cf. ACh, M4",[1]; listed as 2-2 Isomer 1,53%
same,reversal of scopolamine-induced amnesia in passive avoidance,"[2]; 3, 10 and 30 mg/kg po free base, scopolamine 1 mg/kg i.p.",reverse scopolamine-induced amnesia of the paradigm in a dose-dependent manner
same,ED50,"[2]; po, scopolamine 1 mg/kg i.p. 6 hours following training, read-out: approximate ED50, reversal of scopolamine-induced amnesia",~10 mg/kg
same,"% Emax cf. ACh, M3","[3]; CHO cells stably expressing human M3, relative to ACh, listed as 2-2 Isomer 1",17%
same,"% Emax cf. ACh, M2","[4]; CHO cells stably expressing human M2, relative to ACh",0%
"CCOC(=O)N1C2CCCC1CC(N1CCC3(CC1)CNC(=O)O3)C2 (single isomer, unassigned) [Example 5-4 Isomer 2]","% Emax cf. ACh, M4",[1]; listed as 5-4 Isomer 2,8%
same,EC50,[5],158 nM
same,"% Emax cf. ACh, M1",[5],72%
same,EC50,[3],> 20000 nM
same,Emax,[3],0%
same,EC50,[4],> 20000 nM
same,Emax,[4],2%
"COC(=O)N1CC2CC(N3CCC4(CC3)CNC(=O)C4)CC1C2 (single isomer, unassigned) [Example 6-1 Isomer 2]",EC50,[1],63.1 nM
same,"% Emax cf. ACh, M4",[1],33%
same,EC50,[5],20 nM
same,"% Emax cf. ACh, M1",[5]; listed as 6-1 Isomer 2,104%
same,EC50,[3],> 20000 nM
same,Emax,[3],5%
same,EC50,[4],> 20000 nM
same,Emax,[4],18%
"CCOC(=O)N1CC2CC(N3CCC4(CC3)CNC(=O)C4)CC1C2 (single isomer, unassigned) [Example 6-2 Isomer 2]",EC50,[1],3.98 nM
same,Emax,[1],78%
same,EC50,[5],2 nM
same,Emax,[5],118%
same,EC50,[3],> 20000 nM
same,Emax,[3],18%
same,EC50,[4],15.8 nM
same,Emax,[4],30%
"CCOC(=O)N1CC2CC(N3CCC4(CC3)CNC(=O)O4)CC1C2 (single isomer, unassigned) [Example 6-3 Isomer 2]",EC50,[1],39.8 nM
same,Emax,[1],81%
same,EC50,[5],25.1 nM
same,Emax,[5],112%
same,EC50,[3],> 20000 nM
same,Emax,[3],48%
same,EC50,[4],1260 nM
same,Emax,[4],24%
"CCOC(=O)N1C2CCC1CC(N1CCCC3(CC1)CNC(=O)C3)C2 (single isomer, unassigned) [Example 9-1 Isomer 2, ethyl 3-(3-oxo-2,8-diazaspiro[4.6]undec-8-yl)-8-azabicyclo[3.2.1]octane-8-carboxylate]",EC50,[1],2.51 nM
same,Emax,[1],60%
same,EC50,[5],3.98 nM
same,Emax,[5],103%
same,EC50,[3],> 20000 nM
same,Emax,[3],22%
same,EC50,[4],> 20000 nM
same,Emax,[4],12%
"CCOC(=O)N1C2CC[C@@H]1C[C@H](N1CCC3(CC1)CC(=O)N(O)C3)C2 [Example 2-24, ethyl (3-endo)-3-(2-hydroxy-3-oxo-2,8-diazaspiro[4.5]dec-8-yl)-8-azabicyclo[3.2.1]octane-8-carboxylate]",EC50,[1],> 20000 nM
same,Emax,[1],29%
same,EC50,[5],63.1 nM
same,Emax,[5],88%
same,EC50,[3],> 20000 nM
same,Emax,[3],4%
same,EC50,[4],> 20000 nM
same,Emax,[4],4%
